The test system of this data set is rat chronic carcinogenicity bioassay, TD50. Description: DSSTox (CPDBAS) Carcinogenic Potency Database Summary Rat Bioassay Results. To be noted: for outcome: TD50_Rat_Note: no positive results; for Potency: hits give low values. The procedure, abridged:
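The activity score maps log10(1/TD50_Rat_mmol) linearly onto 1–100; actives without a computed TD50, such as mixtures, receive 50. Source data are chronic rat carcinogenicity tests, using the most positive experiment for each sex.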

The mark [1] stands for this setting: TargetSites_Rat_Female: no positive results.
The mark [2] stands for this setting: TD50_Rat_Note: TD50 is harmonic mean of more than one positive test, harmonic mean of TD50 includes a value for upper 99% confidence li, TargetSites_Rat_Female: stomach.
[3] abbreviates: TD50_Rat_Note: TD50 is harmonic mean of more than one positive test, TargetSites_Rat_Female: stomach.
Setting [4] is: TD50_Rat_Note: TD50 is harmonic mean of more than one positive test.

The source made the active and inactive calls.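 How the source made its calls: active means at least one rat sex group has a carcinogenic potency value and tumor site recorded; inconclusive means only rat studies were judged inadequate by the national testing program; inactive means no potency or tumor site, with negative rat experiments.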

As for `O=C1OC(C(O)CO)C(O)=C1O` (configuration not stated), the outcome is “inactive; no positive results”. `CC(COc1ccccc1)N(CCCl)Cc1ccccc1` (configuration not stated): the Potency (TD50_Rat_Note: positive test results only by intraperitoneal or intravenous injection, TD50 is harmonic mean of more than one positive, TargetSites_Rat_Female: peritoneal cavity) was 1.09 mg/kg/day. `O=NN1CC(=O)NC1=O`: the Potency (TD50_Rat_Note: TD50 is harmonic mean of more than one positive test, TargetSites_Rat_Female: all tumor bearing animals) is 43.8 mg/kg/day. For `CC1=C(C(=O)OCCN(Cc2ccccc2)c2ccccc2)C(c2cccc([N+](=O)[O-])c2)C(P2(=O)OCC(C)(C)CO2)=C(C)N1` (configuration not stated), the outcome under setting [1] was “inactive; no positive results”. Regarding `CC(=O)Nc1ccc(-c2ccc(F)cc2)cc1`, the Potency was 1.01 mg/kg/day. Regarding `FC(Cl)(Cl)Cl`, under setting [1], the outcome is “inactive; no positive results”. As to `Oc1ccccc1`, under setting [1], the outcome was “inactive; no positive results”.

Regarding `C=C(C)[C@H]1Cc2c(ccc3c2O[C@@H]2COc4cc(OC)c(OC)cc4[C@@H]2C3=O)O1`, under setting [1], the outcome was “inactive; no positive results”. Still for that read-out and setting: with `CS(=O)(=O)c1ccc([C@@H](O)[C@@H](CO)NC(=O)C(Cl)Cl)cc1` the entry was “inactive; no positive results”. Take `CCCN=[N+]([O-])CCC`: the Potency (TD50_Rat_Note: harmonic mean of TD50 includes a value for upper 99% confidence limit from study with 100% tumor incidence but no lifeta) was 0.000241 mg/kg/day. Regarding `CC1(C)S[C@@H]2[C@H](NC(=O)COc3ccccc3)C(=O)N2[C@H]1C(=O)O`, the outcome under setting [1] was “inactive; no positive results”.

With `COc1cc2c(c3oc(=O)c4c(c13)CC[C@H]4O)[C@@H]1C=CO[C@H]1O2`, the Potency was 0.00247 mg/kg/day.

Regarding `CCOC(=O)CC(SP(=S)(OC)OC)C(=O)OCC` (configuration not stated), under setting [1], the outcome was “inactive; no positive results”. `NCC(=O)O`: for the setting “TargetSites_Rat_Female: kidney”, the Potency was 25700 mg/kg/day. As to `Nc1ccccc1N`, the Potency was 248 mg/kg/day. As for `CC(C)CON=O`, the Potency (TD50_Rat_Note: TD50 is harmonic mean of more than one positive test, TargetSites_Rat_Female: lung) is 54.1 mg/kg/day. For `CC(=O)CN(C)N=O`, the Potency (TD50_Rat_Note: TD50 is harmonic mean of more than one positive test, TargetSites_Rat_Female: esophagus, liver, nasal cavity, oral cavity) was 0.0172 mg/kg/day. With `C[C@H]1CCCCN1N=O`, the Potency (TargetSites_Rat_BothSexes: nervous system) was 13.2 mg/kg/day. For `CC(C)(Oc1ccc(C2CC2(Cl)Cl)cc1)C(=O)O` (configuration not stated), the Potency under setting [2] is 1.97 mg/kg/day. Consider `Nc1ccccc1C(=O)O`, for which the outcome under setting [1] is “inactive; no positive results”.

Consider `CC(=O)Nc1cccc2c1-c1ccccc1C2`, for which the outcome under setting [1] was inactive. Regarding `NC(=O)NC1NC(=O)NC1=O` (configuration not stated), the outcome under setting [1] is “inactive; no positive results”. Consider `FC(F)=C(F)F`, for which the Potency (TD50_Rat_Note: TD50 is harmonic mean of more than one positive test, TargetSites_Rat_Female: hematopoietic system, kidney, liver, vascular system) was 107 mg/kg/day. Turning to `CC(C)C[C@H]1C(=O)N2CCC[C@H]2[C@]2(O)O[C@](NC(=O)[C@@H]3C=C4c5cccc6[nH]c(Br)c(c56)C[C@H]4N(C)C3)(C(C)C)C(=O)N12`, the Potency (TargetSites_Rat_Female: uterus) was 33.7 mg/kg/day.

On to `O=C([O-])c1cc(N=Nc2ccc(-c3ccc(N=Nc4c(O)ccc(N=Nc5cc(S(=O)(=O)[O-])ccc5[O-])c4[O-])cc3)cc2)ccc1O.[Cu+2].[Na+].[Na+]`, for which the Potency (TargetSites_Rat_Female: liver) was 2.07 mg/kg/day. Take `CC1(C)S[C@@H]2[C@H](NC(=O)[C@H](N)c3ccccc3)C(=O)N2[C@H]1C(=O)O`: under setting [1], the outcome is “inactive; no positive results”. Consider `CN(N=O)C(=O)N[C@@H]1[C@@H](O)[C@H](O)[C@@H](CO)O[C@@H]1O`, for which, for the setting “TD50_Rat_Note: positive test results only by intraperitoneal or intravenous injection, TD50 is harmonic mean of more than one positive, TargetSites_Rat_Female: kidney”, the Potency was 0.963 mg/kg/day. As for `Cc1ccc(S(=O)(=O)NC(=O)NN2CCCCCC2)cc1`, the outcome under setting [1] was “inactive; no positive results”. In the case of `CC(C)C=O`, under setting [1], the outcome is “inactive; no positive results”. Regarding `CC(C)N=[N+]([O-])C(C)C`, the Potency was 0.00268 mg/kg/day.

As for `CC=O`, the Potency (TD50_Rat_Note: TD50 is harmonic mean of more than one positive test, TargetSites_Rat_Female: nasal cavity) was 153 mg/kg/day. For the compound `C/C=C(\C)C(=O)O[C@@H]1CCN2CC=C(COC(=O)C(O)(C(C)C)C(C)O)[C@H]12` (some centres not stated), where the note is “TD50_Rat_Note: positive test results only by intraperitoneal or intravenous injection”, the Potency is 1.91 mg/kg/day.

Consider `CN(N=O)C(=O)NCCC[C@H](N)C(=O)O`, for which the Potency (TD50_Rat_Note: positive test results only by intraperitoneal or intravenous injection, TD50 is harmonic mean of more than one positive, TargetSites_Rat_Female: kidney, mammary gland, pancreas, skin) is 0.787 mg/kg/day. With `O=C(O)/C=C/c1ccc(O)c(O)c1`, the Potency under setting [3] is 297 mg/kg/day.

On to `O=[N+]([O-])c1ccc(Oc2ccc(Cl)cc2Cl)cc1`, for which the Potency (TargetSites_Rat_Female: pancreas) was 420 mg/kg/day. In the case of `CC(C)CCC[C@@H](C)[C@H]1CC[C@H]2[C@@H]3CC=C4C[C@@H](OC(=O)Cc5ccc(N(CCCl)CCCl)cc5)CC[C@]4(C)[C@H]3CC[C@]12C`, the Potency (TargetSites_Rat_Female: mammary gland) is 0.523 mg/kg/day. For the compound `O=S1OCC2C(CO1)C1(Cl)C(Cl)=C(Cl)C2(Cl)C1(Cl)Cl` (configuration not stated), under setting [1], the outcome is “inactive; no positive results”. For the compound `O=NN1CCNCC1`, under “TD50_Rat_Note: TD50 is harmonic mean of more than one positive test, no positive results are statistically significant, TargetSites_Rat_Female: all tumor bearing animals”, the Potency is 8.78 mg/kg/day. For `Nc1ccc(N)cc1`, under setting [1], the outcome is “inactive; no positive results”.

`Nc1ccc(Cc2ccc(N)cc2)cc1`: the Potency (TD50_Rat_Note: TD50 is harmonic mean of more than one positive test, TargetSites_Rat_Female: thyroid gland) was 20 mg/kg/day. Turning to `CCCCC1(COC(=O)CCC(=O)O)C(=O)N(c2ccccc2)N(c2ccccc2)C1=O`, under setting [1], the outcome is “inactive; no positive results”.

In the case of `CN1C2CC[C@@H]1CC(NC(=O)c1cc(Cl)cc3c1OC(C)(C)C3)C2` (some centres not stated), under setting [1], the outcome was “inactive; no positive results”. For `COc1cc(/C=C/C(=O)O[C@H]2CC[C@]34C[C@]35CC[C@]3(C)[C@@H]([C@H](C)CCC=C(C)C)CC[C@@]3(C)[C@@H]5CC[C@H]4C2(C)C)ccc1O`, the outcome under setting [1] was “inactive; no positive results”. For the compound `CCOc1ccc(NC(C)=O)cc1N`, under setting [1], the outcome is “inactive; no positive results”. For `CCC(Br)(CC)C(=O)NC(N)=O`, the outcome under setting [1] was “inactive; no positive results”. As to `CN(C)c1ccc(N=Nc2ccccc2)cc1`, the Potency (TargetSites_Rat_Female: liver) is 3.31 mg/kg/day. As for `Cc1ccccc1S(N)(=O)=O`, under “TargetSites_Rat_BothSexes: urinary bladder”, the Potency is 3960 mg/kg/day. Consider `Cc1cccc(C)c1N`, for which the outcome is “inactive; no positive results”.

As to `CC(C)NCC(O)c1ccc(NS(C)(=O)=O)cc1` (configuration not stated), under setting [1], the outcome is “inactive; no positive results”.

Consider `S=C=NCc1ccccc1`, for which the outcome is “inactive; no positive results”.

On to `CC(O)CCl` (configuration not stated), for which the outcome under setting [1] was “inactive; no positive results”.

For `COc1cc(O)c2c(=O)c3c(OC)cc4c(c3oc2c1OC)C1C=COC1O4` (configuration not stated), the Potency (TD50_Rat_Note: TD50 value is overestimated as upper 99% confidence limit from study with 100% tumor incidence but no lifetable, harmoni) is 0.364 mg/kg/day. Consider `C[C@]12C=CC(=O)C=C1CC[C@@H]1[C@@H]2[C@@H](O)C[C@@]2(C)[C@H]1CC[C@]2(O)C(=O)COC(=O)CCCc1ccc(N(CCCl)CCCl)cc1`, for which the Potency (TargetSites_Rat_Female: ear Zymbals gland) was 19.2 mg/kg/day. Take `Oc1ccccc1O`: the Potency under setting [2] was 71.5 mg/kg/day.

In the case of `Nc1nc(=S)c2ncn([C@H]3C[C@H](O)[C@@H](CO)O3)c2[nH]1`, the Potency (TD50_Rat_Note: positive test results only by intraperitoneal or intravenous injection, TargetSites_Rat_Female: ear Zymbals gland) was 2.1 mg/kg/day. As for `O=NN(CC(=O)O)CC(=O)O`, under setting [1], the outcome is “inactive; no positive results”. `O=S(=O)(O)NC1CCCCC1`: the result (TargetSites_Rat_BothSexes: no positive results) was inactive. Turning to `N[C@@H](CC(=O)O)C(=O)O`, under setting [1], the outcome is “inactive; no positive results”. As to `Cn1cc(C(=O)[C@@H]2CCc3nc[nH]c3C2)c2ccccc21`, under setting [1], the outcome was “inactive; no positive results”. Turning to `[O-]/[N+](=N\O)c1ccccc1`, the Potency (TD50_Rat_Note: TD50 is harmonic mean of more than one positive test, TargetSites_Rat_Female: ear Zymbals gland, liver, stomach, vascular system) is 8.35 mg/kg/day. `Clc1ccc(Sc2cc(Cl)c(Cl)cc2Cl)cc1`: the outcome under setting [1] is “inactive; no positive results”. The same measure, in the same setting: with `c1ccc2n[nH]nc2c1` the entry was “inactive; no positive results”. Turning to `O=NN1CCCCCCC1`, the Potency under setting [4] is 0.0378 mg/kg/day. In the case of `CN(N=O)c1cccnc1`, under setting [1], the result was inactive. In the case of `O=C1c2ccccc2C(=O)c2c(O)cccc21`, the Potency under setting [4] is 93.5 mg/kg/day.

Take `CCCCCCCCCCCCCCCC(=O)CC(=O)CCCCCCCCCCCCCCC`: under setting [1], the outcome was inactive. As to `OCCOCCOCCO`, the outcome is “inactive; no positive results”. Regarding `Cc1cccc(C)c1NC1=NCCCS1`, the outcome is “inactive; no positive results”. On the same count and under the same terms, the entry for `CC1=C(CC(=O)O)c2cc(F)ccc2/C1=C\c1ccc(S(C)(=O)=O)cc1` is “inactive; no positive results”. For `Cn1nc(CO)nc1NCCCOc1cccc(CN2CCCCC2)c1`, the Potency under setting [3] is 479 mg/kg/day.

As for `CC(=O)Nc1ccc(C(=O)CCl)cc1`, the outcome under setting [1] was “inactive; no positive results”. The same measure, in the same setting: with `O=[N+]([O-])c1ccc2ncccc2c1` the entry was “inactive; no positive results”. Take `NC(=O)N(CCCO)N=O`: the Potency under setting [3] was 0.978 mg/kg/day. With `CCN(CC)CCOc1ccc(C(O)(Cc2ccc(OC)cc2)c2ccccc2)cc1` (configuration not stated), the outcome under setting [1] was inactive.

For `CCC1(CCC(C)C)C(=O)NC(=O)NC1=O`, the outcome is “inactive; no positive results”.

Consider `CC(CN1CC(=O)NC(=O)C1)N1CC(=O)NC(=O)C1` (configuration not stated), for which, for the setting “TD50_Rat_Note: positive test results only by intraperitoneal or intravenous injection, TargetSites_Rat_Female: uterus”, the Potency is 10.7 mg/kg/day.

For `CCC[N+](=O)[O-]`, under setting [1], the outcome is “inactive; no positive results”.

The values above are taken from PubChem BioAssay AID1208 (EPA DSSTox, 2008).
